≈ marks a conversion by molar mass, not a printed value.
Legend:
Format in all cases: functional
[1] = tested on: Mycobacterium tuberculosis; test: Antitubercular activity against Mycobacterium tuberculosis INH-R1 harboring katG Y155 truncated mutant after 5 days by fluorescence-based assay
[2] = tested on: Mycobacterium tuberculosis; test: Antitubercular activity against Mycobacterium tuberculosis RIF-R1 harboring rpoB S522L mutant after 5 days by fluorescence-based assay
[3] = tested on: Mycobacterium tuberculosis; test: Antitubercular activity against Mycobacterium tuberculosis FQ-R1 harboring gyrB D94N mutant after 5 days by fluorescence-based assay

SMILES	MIC [1] [µM]	MIC [2] [µM]	MIC [3] [µM]
O=[N+]([O-])c1ncn(CCCCNc2ncnc3ccccc23)n1	200 (≈ 62.7 µg/mL)	>200	>200
O=[N+]([O-])c1nccn1CCCCNc1ccnc2c(Cl)cccc12	>200	>200	>200
NNC(=O)c1ccncc1 [ISONIAZID]	>200	0.31 (≈ 0.0425 µg/mL)	0.35 (≈ 0.048 µg/mL)
C[C@H]1COc2c(N3CCN(C)CC3)c(F)cc3c(=O)c(C(=O)O)cn1c23.C[C@H]1COc2c(N3CCN(C)CC3)c(F)cc3c(=O)c(C(=O)O)cn1c23.O [LEVOFLOXACIN]	1.1	0.85	14
CO[C@H]1/C=C/O[C@@]2(C)Oc3c(C)c(O)c4c(O)c(c(/C=N/N5CCN(C)CC5)c(O)c4c3C2=O)NC(=O)/C(C)=C\C=C\[C@H](C)[C@H](O)[C@@H](C)[C@@H](O)[C@@H](C)[C@H](OC(C)=O)[C@@H]1C [RIFAMPIN]	0.012 (≈ 0.00988 µg/mL)	7.2 (≈ 5.93 µg/mL)	>0.04

Reference: ChEMBL document CHEMBL4130372, “The antitrypanosomal and antitubercular activity of some nitro(triazole/imidazole)-based aromatic amines” (Eur J Med Chem, 2017)
